Experimental data reported in patent publication US20240156790A1, “COMPOUNDS, COMPOSITIONS, AND METHODS FOR MODULATING FERROPTOSIS AND TREATING EXCITOTOXIC DISORDERS” (THE TRUSTEES OF COLUMBIA UNIVERSITY IN THE CITY OF NEW YORK, priority 2018, published 2024).

Key:
[1] = PHB4082 IP PK Study (plasma, brain, liver, kidney); format: in vivo, C57BL/6 mice
Description: C57BL/6 mice (8-weeks of age and ˜25 g weight) were weighed before injection and divided into groups of two male and female mice per cage. PHB4082 was dissolved in 5% DMSO/95% of 65% v/v of 25% w/v 2-hydroxypropyl-3-cyclodextrin (Cayman Chemical) dissolved in 20% EtOH, 30% v/v Poly(ethylene glycol)-400 (Sigma Aldrich 202398), 5% v/v Tween 80 (Fluka 59924) to create a 2 mg/mL Solution. The same formulation without PHB4082 was used as a vehicle control. The solution was sterilized using a […] Steriflip filter unit (Thomas Scientific 1189Q46) and stored at 4° C. Mice were dosed IP and euthanized by CO2 asphyxiation for 3 min at 0, 1, 2, 4, and 8 h after administration. To ensure that the vehicle was well-tolerated, four mice were treated with vehicle and euthanized 4 h after administration. ˜0.5 mL of blood was collected via cardiac puncture and immediately put in K3 EDTA microtubes ([…] 41.1504.105) and kept on ice. Organs were harvested, placed in Eppendorf tubes, and frozen on dry ice. Blood samples were centrifuged for 10 min at 2,100×g at 4° C., then plasma was transferred to a clean tube and frozen on dry ice. Organ samples were weighed and placed in hard tissue homogenizing tubes (Omni International 19-628) and a volume of DEPC-treated nuclease-free water (IBI Scientific IB42200) was added to make a 500 mg/mL solution and homogenized using the Omni Bead Ruptor 4 at speed 5 for 30 seconds. PHB4082 was extracted from plasma or organ homogenate by adding 900 μL acetonitrile to 100 μL plasma or organ homogenate. Samples were mixed by vortexing and allowed to extract overnight at 4° C. prior to mixing for at least 5 min by rotating at room temperature, vortexing, and sonicating for at least 30 second prior to centrifugation for 10 min at 4,000×g and 4° C. The supernatant was then transferred to a glass vial and dried under nitrogen. After drying, the samples were resuspended in 100 μL of methanol and analyzed by UPLC-MS described below. The concentration of PHB4082 was determined against a standard curve with a linear fit and the data plot in GraphPad Prism 9 and fit with a one phase decay.
To evaluate whether PHB4082 was a suitable candidate for in vivo studies, we performed a pharmacokinetic study of PHB4082 in C57BL/6 mice at ˜8 weeks of age. To evaluate sex-specific effects on compound metabolism, two male and two female mice were used for each condition. Mice were dosed at 20 mg/kg via intraperitoneal (IP) injection and the injection volume ranged from 180 uL to 300 uL based on different body weights. […] Extracts were analyzed via UPLC-MS and the concentration of compound determined against a standard curve ran concurrently with samples.

[2] = Plasma stability, mouse plasma (Table 1); format: in vitro ADME
[3] = TH-2-31 IP PK Study, 40 mg/kg; format: in vivo, C57BL/6 mice; conditions: 40 mg/kg IP, up to eight hours
Description: C57BL/6 mice (8-weeks of age and ˜25 g weight) were weighed before injection and divided into groups of 2 male and female mice per cage. TH-2-31 was dissolved in 5% DMSO/95% of 65% v/v of 25% w/v 2-hydroxypropyl-3-cyclodextrin (Cayman Chemical) dissolved in 20% EtOH, 30% v/v Poly(ethylene glycol)-400 (Sigma Aldrich 202398), 5% v/v Tween 80 (Fluka 59924) to create a 4 mg/mL solution. The same formulation without TH-2-31 was used as a vehicle control. The solution was sterilized using a […] Steriflip filter unit (Thomas Scientific 1189Q46). Mice were dosed IP and euthanized by CO2 asphyxiation for 3 min at 0, 1, 2, 4, and 8 h after administration. To ensure that the vehicle was well-tolerated 4 mice were treated with vehicle and euthanized 4 h after administration. ˜0.5 mL of blood was collected via cardiac puncture and immediately put in K3 EDTA microtubes ([…] 41.1504.105) and kept on ice. Organs were harvested, placed in Eppendorf tubes, and frozen on dry ice. Blood samples were centrifuged for 10 min at 2,100×g at 4° C., then plasma was transferred to a clean tube and frozen on dry ice. […] After drying, the samples were resuspended in 100 μL of methanol and analyzed by UPLC-MS described below. The concentration of TH-2-31 was determined against a standard curve with a linear fit and the data plot in GraphPad Prism 9 and fit with a one phase decay. […]

With `Cc1noc(-c2ccc(NC3CCCCC3)c(NC3CCCCC3)c2)n1` [PHB4082, N1,N2-dicyclohexyl-4-(3-methyl-1,2,4-oxadiazol-5-yl)benzene-1,2-diamine] the “accumulation in plasma and brain” value ([1]; 20 mg/kg IP) was roughly 100 nM, the “tissue accumulation, in words” value ([1]; IP) was “stably accumulates in mouse kidney with minimal accumulation observed in brain” and the concentration in brain ([1]; PK study of PHB4082) was “around 200 nM”. The concentration at 8 h ([1]; both sexes, C57BL/6, mouse, kidney, intraperitoneal, 20 mg/kg IP, at eight hours) was 1800 nM.
For `CCOC(=O)c1ccc(NC2CCCCC2)c(N)c1` [Fer-1, Ferrostatin-1, reference compound], the “Plasma Stability at six hours (% remaining)” value [2] was 0-2%.
With `Cc1noc(-c2cnc(NC3CCCCC3)c(NC3CCCCC3)c2)n1` [TH-2-31, N^2,N^3-dicyclohexyl-5-(3-methyl-1,2,4-oxadiazol-5-yl)pyridine-2,3-diamine] the “accumulation in plasma and brain, in words” value [3] was “stably accumulate at micromolar concentrations in plasma and brain even eight hours after”.
